Test results published in US8895738B2, “Mesoionic pyrido [1, 2-A] pyrimidine pesticides” (E I du Pont de Nemours and Company, priority 2010, dated 2014).
Structures can show the parent of a compound that is named as a salt.

Tests used:
Type in all cases: in vivo
[1] = tested on: green peach aphid (Myzus persicae); assay: Test B: control of green peach aphid on radish plant, contact and/or systemic; settings: 144 h, assessed after 6 days
Text: For evaluating control of green peach aphid (Myzus persicae) through contact and/or systemic means, the test unit consisted of a small open container with a 12-15-day-old radish plant inside. This was pre-infested by placing on a leaf of the test plant 30-40 aphids on a piece of leaf excised from a culture plant (cut-leaf method). The aphids moved onto the test plant as the leaf piece desiccated. After pre-infestation, the soil of the test unit was covered with a layer of sand.
Test compounds were formulated and sprayed at 250, 50 and/or 10 ppm as described for Test A. The applications were replicated three times. After spraying of the formulated test compound, each test unit was allowed to dry for 1 h and then a black, screened cap was placed on top. The test units were held for 6 days in a growth chamber at 19-21° C. and 50-70% relative humidity. Each test unit was then visually assessed for insect mortality.

[2] = tested on: rice green leafhopper (Nephotettix virescens); assay: Test G: control of rice green leafhopper on rice plant; settings: 120 h, assessed after 5 days, read-out: control efficacy: mortality
Method: (§1) For evaluating control of rice green leafhopper (Nephotettix virescens) through contact and/or systemic means, the test unit consisted of a plastic pot containing a 13-cm-tall rice plant covered with steel wire mesh (50 mesh) supported by a wire frame. A small amount of sand was added to form a good seal between the bottom of the wire mesh, the soil surface and the top edge of the plastic pot.
(§2) Test compounds were formulated and sprayed at 50, 10 and/or 2 ppm, and the tests were replicated three times in a manner similar to the one described for Test A. After spraying, the test units were allowed to dry for 2 h before they were post-infested with 10 green leafhoppers (3rd instar nymphs, 7-9 days post-hatch). After 5 days, each test unit was visually assessed for insect mortality.

[3] = tested on: rice brown planthopper (Nilaparvata lugens); assay: Test H: control of rice brown planthopper on rice plant; settings: 120 h, assessed after 5 days, read-out: control efficacy: mortality
Method: as §1, with “brown planthopper (Nilaparvata lugens)” for “green leafhopper (Nephotettix virescens)”
as §2, with “at 10, 2” for “at 50, 10”, “and/or 0.4” for “and/or 2”, “10 brown planthoppers” for “10 green leafhoppers”

[4] = tested on: Rice plants (indica cultivar ‘MTU1010’); assay: Test J: vigor of rice crop outdoors, two foliar applications, West Godavri; settings: applied twice, 48 days after first application, Nilaparvata lugens level high
Method: (§3) To evaluate the effect of application of a compound of the invention on the vigor of rice crops grown under outdoor conditions, Tests 1 through 0 were conducted. “a.i.” refers to the amount of active ingredient applied.
Rice plants (indica cultivar ‘MTU1010’) were transplanted into flooded 5 m×3 m test plots of clay loam soil in the delta region of the West Godavri district, Andhra Pradesh, India, during the rainy season, and grown using local agronomic practices. After 52 days, aqueous mixtures of Compound 3 were applied to the foliage of the rice plants at 12.5, 25 or 50 g a.i./ha in a spray volume of 387 L/ha using a backpack sprayer. Plots of unsprayed rice plants were used as controls. Each treatment and control was replicated three times, and the plots were arranged in a randomized complete block design. At the time of application of Compound 3, the pest level of rice brown planthopper (Nilaparvata lugens) was high, i.e. much above the level considered economically significant. 20 days after the first treatment, the foliar applications of aqueous mixtures of Compound 3 were repeated at the same application rates in a spray volume of 467 L/ha.

[5] = tested on: Rice plants (indica cultivar ‘Swarna’); assay: Test N: harvest yield of rice crop outdoors, two foliar applications, Bargarh; settings: applied twice, Nilaparvata lugens level high, controls 620 kg/ha
Method: as §3
Rice plants (indica cultivar ‘Swarna’) were transplanted into flooded 4 m×3 m test plots of clay loam soil in the Bargarh district, Orissa, India, during the rainy season, and grown using local agronomic practices. After 70 days, aqueous mixtures of Compound 3 were applied to the foliage of the rice plants at 12.5, 25 or 50 g a.i./ha in a spray volume of 400 L/ha using a backpack sprayer. Plots of unsprayed rice plants were used as controls. Each treatment and control was replicated three times, and the plots were arranged in a randomized complete block design. At the time of application of Compound 3, the pest level of rice brown planthopper (Nilaparvata lugens) was high, i.e. much above the level considered economically significant. 14 days after the first treatment, the foliar applications of aqueous mixtures of Compound 3 were repeated at the same application rates in a spray volume of 400 L/ha.
Harvest yields from the crops treated with 12.5, 25 and 50 g a.i./ha of Compound 3 were 3190, 3660 and 4220 kg/ha, respectively, compared to 620 kg/ha from the untreated controls.

[6] = tested on: Rice plants (indica cultivar ‘IR-64’); assay: Test O: harvest yield of rice crop outdoors, Bargarh; settings: 12.5, 25 and 50 g a.i./ha (method: 6.25, 12.5, 25 or 50), with indoxacarb and chlorantraniliprole, controls 1370 kg/ha
Method: as §3
Rice plants (indica cultivar ‘IR-64’) were transplanted into flooded 5 m×5 m test plots of clay loam soil the Bargarh district, Orissa, India, at the end of the winter season, and grown using local agronomic practices. After 79 days, aqueous mixtures containing 30 g a.i./ha of indoxacarb in form of STEWARD® Insecticide, 20 g a.i./ha of chlorantraniliprole, and 6.25, 12.5, 25 or 50 g a.i./ha of Compound 3 were applied to the foliage of the rice plants at in a spray volume of 500 L/ha using a backpack sprayer. Plots of control rice plants were sprayed with an aqueous mixture containing 30 g a.i./ha of indoxacarb in form of STEWARD® Insecticide and 20 g a.i./ha of chlorantraniliprole (i.e. no Compound 3). Each treatment and control was replicated three times, and the plots were arranged in a randomized complete block design. At the time of application of Compound 3, the pest level of rice brown planthopper (Nilaparvata lugens) was high, i.e. much above the level considered economically significant.
Harvest yields from the crops treated with 12.5, 25 and 50 g a.i./ha of Compound 3 were 2470, 3430, 3470 and 4600 kg/ha, respectively, compared to 1370 kg/ha from the untreated controls.

For `O=c1c(-c2cccc(C(F)(F)F)c2)c([O-])[n+](Cc2cncnc2)c2ccccn12` [Compound 3, 2-hydroxy-4-oxo-1-(5-pyrimidinylmethyl)-3-[3-(trifluoromethyl)phenyl]-4H-pyrido[1,2-a]pyrimidinium inner salt], which mortality at 50 ppm ([1]; sprayed at 50 ppm) is on record?
Its mortality at 50 ppm is no less than 80%.

And the mortality at 250 ppm ([1]; sprayed at 250 ppm)?
Its mortality at 250 ppm is no less than 80%.

What about the mortality at 2 ppm ([2]; sprayed at 2 ppm) of the same compound?
Its mortality at 2 ppm is no less than 80%.

And the mortality at 10 ppm ([2]; sprayed at 10 ppm)?
Its mortality at 10 ppm is no less than 80%.

What about the mortality at 50 ppm ([2]; sprayed at 50 ppm) of the same compound?
The mortality at 50 ppm was no less than 80%.

And the mortality at 2 ppm ([3]; sprayed at 2 ppm)?
The mortality at 2 ppm was no less than 80%.

And the mortality at 10 ppm ([3]; sprayed at 10 ppm)?
The mortality at 10 ppm was no less than 80%.

What about the “crop vigor (visual rating, 0 to 200% scale, untreated = 100%)” value ([4]; 12.5 g a.i./ha foliar) of the same compound?
The value was 148%.

What about the “crop vigor (visual rating, 0 to 200% scale, untreated = 100%)” value ([4]; 25 g a.i./ha foliar) of the same compound?
The value was 148%.

And the “crop vigor (visual rating, 0 to 200% scale, untreated = 100%)” value ([4]; 50 g a.i./ha foliar)?
Its value is 148%.

And the harvest yield ([5]; 12.5 g a.i./ha foliar)?
Its harvest yield is 3190 kg/ha.

What about the harvest yield ([5]; 25 g a.i./ha foliar) of the same compound?
The harvest yield was 3660 kg/ha.

And the harvest yield ([5]; 50 g a.i./ha foliar)?
The harvest yield was 4220 kg/ha.

And the harvest yield ([6]; 1st of four values)?
Its harvest yield is 2470 kg/ha.

What about the harvest yield ([6]; 2nd of four values) of the same compound?
The harvest yield was 3430 kg/ha.

And the harvest yield ([6]; 3rd of four values)?
The harvest yield was 3470 kg/ha.

And the harvest yield ([6]; 4th of four values)?
The harvest yield was 4600 kg/ha.
